Measured values taken from patent US10052320B2, “Substituted quinoxalines as FGFR kinase inhibitors” (ASTEX THERAPEUTICS LIMITED, priority 2011, dated 2018).

Assays:
[1] = molecular target: Ba/F3-KDR-transfected cells (Homo sapiens, UniProt P35968); test: Ba/F3-KDR (minus IL3) cellular proliferation assay, Alamar Blue; assay type: cell-based
Method in brief: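 Fluorescence (ex 540, em 590 nm) from resazurin reduction, read after 4 h with Alamar Blue, reports viability of Ba/F3-KDR cells after 24 h of compound treatment at 37 °C. Counterscreen wells also contained 10 ng/ml murine IL3.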

FGFR2 (h) = FGFR2 (h) (Homo sapiens, UniProt P21802); test: FGFR2 (enzymatic assay), TR-FRET; assay type: biochemical; details: read-out: FGFR 2 pIC50 (converted)
Protocol: In a final reaction volume of 30 μL, FGFR2 (h) (150 ng/ml) was incubated with 50 mM HEPES pH 7.5, 6 mM MnCl2, 1 mM DTT, 0.1 mM Na3VO4, 0.01% Triton-X-100, 500 nM Btn-Flt3 and 0.4 μM ATP in the presence of compound (1% DMSO final). […] Time-Resolved Fluorescence Resonance Energy Transfer (TR-FRET) signal (ex340 nm. Em 620 nm, em 655 nm) was measured afterwards and results are expressed in (Relative Fluorescence Units).

[2] = molecular target: Ba/F3-FGFR1-transfected cells (Homo sapiens, UniProt P11362); test: Ba/F3-FGFR1 (minus IL3) cellular proliferation assay, Alamar Blue; assay type: cell-based; details: for BAF3-FGFR 1 (MIN IL3) 384 well pIC50: minus IL3, 384 well; for BAF3-FGFR 1 (MIN IL3) 96 well pIC50: minus IL3, 96 well
Method in brief: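 24 h cmpd exposure, 37 °C/5% CO2; phenol red-free RPMI-1640, 10% FBS; 20000 cells/well (384) or 10000 cells/well (96); Alamar Blue (0.15 mM resazurin) 4 h; RFU ex 540/em 590.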

[3] = molecular target: Ba/F3-FGFR4-transfected cells (Homo sapiens, UniProt P22455); test: Ba/F3-FGFR4 cellular proliferation assay, Alamar Blue; assay type: cell-based
Method in brief: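 Ba/F3 cells transfected with FGFR4, 20000 cells/well in phenol red-free RPMI-1640 with 10% FBS, were exposed to compound for 24 h at 37° C, 5% CO2. Alamar Blue (resazurin) was then added for 4 h, and fluorescence was read at ex 540/em 590 nm.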

Sequence of Ba/F3-FGFR1-transfected cells (P11362 whole entry, change not shown): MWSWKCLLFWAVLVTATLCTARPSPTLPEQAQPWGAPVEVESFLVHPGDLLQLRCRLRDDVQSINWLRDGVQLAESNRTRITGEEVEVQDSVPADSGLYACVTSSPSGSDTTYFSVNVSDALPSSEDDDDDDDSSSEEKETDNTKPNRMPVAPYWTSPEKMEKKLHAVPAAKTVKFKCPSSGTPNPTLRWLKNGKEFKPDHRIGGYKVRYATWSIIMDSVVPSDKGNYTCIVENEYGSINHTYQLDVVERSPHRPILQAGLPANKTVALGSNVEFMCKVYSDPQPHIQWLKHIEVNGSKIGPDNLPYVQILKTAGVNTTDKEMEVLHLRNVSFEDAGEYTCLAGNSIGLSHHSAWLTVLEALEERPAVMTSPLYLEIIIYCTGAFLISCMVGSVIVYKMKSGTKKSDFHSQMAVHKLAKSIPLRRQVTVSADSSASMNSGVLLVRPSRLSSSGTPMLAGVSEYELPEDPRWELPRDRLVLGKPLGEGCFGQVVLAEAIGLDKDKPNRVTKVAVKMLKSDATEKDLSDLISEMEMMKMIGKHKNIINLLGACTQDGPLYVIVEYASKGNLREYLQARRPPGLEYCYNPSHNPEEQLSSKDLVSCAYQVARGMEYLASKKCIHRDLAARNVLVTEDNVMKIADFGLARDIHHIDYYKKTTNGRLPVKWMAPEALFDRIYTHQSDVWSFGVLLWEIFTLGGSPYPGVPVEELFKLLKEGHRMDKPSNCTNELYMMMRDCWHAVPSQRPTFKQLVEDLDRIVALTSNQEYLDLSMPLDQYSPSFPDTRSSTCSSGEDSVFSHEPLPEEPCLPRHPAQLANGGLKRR
Sequence of Ba/F3-KDR-transfected cells (P35968 whole entry, change not shown): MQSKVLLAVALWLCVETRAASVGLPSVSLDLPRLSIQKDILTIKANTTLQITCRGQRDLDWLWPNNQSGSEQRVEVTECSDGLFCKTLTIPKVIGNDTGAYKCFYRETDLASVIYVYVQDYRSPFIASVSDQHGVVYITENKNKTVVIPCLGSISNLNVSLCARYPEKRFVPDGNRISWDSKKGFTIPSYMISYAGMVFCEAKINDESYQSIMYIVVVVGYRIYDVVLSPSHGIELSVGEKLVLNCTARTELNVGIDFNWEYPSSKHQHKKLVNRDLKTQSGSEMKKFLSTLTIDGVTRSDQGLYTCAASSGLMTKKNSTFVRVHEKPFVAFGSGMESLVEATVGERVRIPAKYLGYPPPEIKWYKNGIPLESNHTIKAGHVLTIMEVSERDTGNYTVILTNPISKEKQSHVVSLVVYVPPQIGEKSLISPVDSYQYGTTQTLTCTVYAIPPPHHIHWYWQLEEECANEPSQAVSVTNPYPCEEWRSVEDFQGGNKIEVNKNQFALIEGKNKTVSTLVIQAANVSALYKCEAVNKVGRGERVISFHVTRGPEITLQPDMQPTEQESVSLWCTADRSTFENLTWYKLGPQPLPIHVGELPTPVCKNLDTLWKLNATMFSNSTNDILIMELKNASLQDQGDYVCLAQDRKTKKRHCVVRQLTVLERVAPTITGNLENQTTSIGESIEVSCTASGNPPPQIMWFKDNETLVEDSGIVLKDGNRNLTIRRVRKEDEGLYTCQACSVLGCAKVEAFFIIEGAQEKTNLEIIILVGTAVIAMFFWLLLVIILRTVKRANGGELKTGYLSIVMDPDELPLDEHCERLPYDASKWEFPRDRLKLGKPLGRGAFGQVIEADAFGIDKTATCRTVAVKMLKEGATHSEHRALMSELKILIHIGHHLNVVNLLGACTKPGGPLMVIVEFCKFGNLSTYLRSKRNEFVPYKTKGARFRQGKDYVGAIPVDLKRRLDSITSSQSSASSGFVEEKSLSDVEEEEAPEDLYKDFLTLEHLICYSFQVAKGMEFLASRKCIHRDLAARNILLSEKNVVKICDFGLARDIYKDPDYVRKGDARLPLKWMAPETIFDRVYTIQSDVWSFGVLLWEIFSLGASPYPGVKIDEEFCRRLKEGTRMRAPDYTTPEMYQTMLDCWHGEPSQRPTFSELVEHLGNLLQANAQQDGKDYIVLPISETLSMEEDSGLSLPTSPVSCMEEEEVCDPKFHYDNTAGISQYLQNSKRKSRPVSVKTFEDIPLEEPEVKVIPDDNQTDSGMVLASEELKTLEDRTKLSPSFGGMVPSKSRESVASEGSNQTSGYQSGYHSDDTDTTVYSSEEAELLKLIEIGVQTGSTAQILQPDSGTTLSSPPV
Sequence of FGFR2 (h) (P21802 22-821): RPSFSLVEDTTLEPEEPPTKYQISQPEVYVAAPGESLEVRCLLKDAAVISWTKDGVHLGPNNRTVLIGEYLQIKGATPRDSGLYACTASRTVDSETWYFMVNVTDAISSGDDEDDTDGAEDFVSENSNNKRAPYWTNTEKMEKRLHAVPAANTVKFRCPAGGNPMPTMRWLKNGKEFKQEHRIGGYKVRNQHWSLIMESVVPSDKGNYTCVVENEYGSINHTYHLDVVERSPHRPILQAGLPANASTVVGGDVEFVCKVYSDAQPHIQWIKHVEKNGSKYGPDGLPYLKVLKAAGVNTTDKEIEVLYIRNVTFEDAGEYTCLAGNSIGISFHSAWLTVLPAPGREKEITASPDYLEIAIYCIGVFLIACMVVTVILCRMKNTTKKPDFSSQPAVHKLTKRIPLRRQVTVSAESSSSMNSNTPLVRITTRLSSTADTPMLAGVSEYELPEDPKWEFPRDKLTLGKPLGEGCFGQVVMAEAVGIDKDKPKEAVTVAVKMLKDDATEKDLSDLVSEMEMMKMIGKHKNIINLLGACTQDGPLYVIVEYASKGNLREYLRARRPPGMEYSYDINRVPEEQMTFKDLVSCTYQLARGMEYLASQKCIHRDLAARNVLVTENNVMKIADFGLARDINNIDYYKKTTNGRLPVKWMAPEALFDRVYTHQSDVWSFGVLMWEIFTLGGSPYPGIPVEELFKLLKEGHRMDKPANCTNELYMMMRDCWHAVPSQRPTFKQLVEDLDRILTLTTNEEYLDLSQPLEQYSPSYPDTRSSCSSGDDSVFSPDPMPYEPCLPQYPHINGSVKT
Sequence of Ba/F3-FGFR4-transfected cells (P22455 whole entry, change not shown): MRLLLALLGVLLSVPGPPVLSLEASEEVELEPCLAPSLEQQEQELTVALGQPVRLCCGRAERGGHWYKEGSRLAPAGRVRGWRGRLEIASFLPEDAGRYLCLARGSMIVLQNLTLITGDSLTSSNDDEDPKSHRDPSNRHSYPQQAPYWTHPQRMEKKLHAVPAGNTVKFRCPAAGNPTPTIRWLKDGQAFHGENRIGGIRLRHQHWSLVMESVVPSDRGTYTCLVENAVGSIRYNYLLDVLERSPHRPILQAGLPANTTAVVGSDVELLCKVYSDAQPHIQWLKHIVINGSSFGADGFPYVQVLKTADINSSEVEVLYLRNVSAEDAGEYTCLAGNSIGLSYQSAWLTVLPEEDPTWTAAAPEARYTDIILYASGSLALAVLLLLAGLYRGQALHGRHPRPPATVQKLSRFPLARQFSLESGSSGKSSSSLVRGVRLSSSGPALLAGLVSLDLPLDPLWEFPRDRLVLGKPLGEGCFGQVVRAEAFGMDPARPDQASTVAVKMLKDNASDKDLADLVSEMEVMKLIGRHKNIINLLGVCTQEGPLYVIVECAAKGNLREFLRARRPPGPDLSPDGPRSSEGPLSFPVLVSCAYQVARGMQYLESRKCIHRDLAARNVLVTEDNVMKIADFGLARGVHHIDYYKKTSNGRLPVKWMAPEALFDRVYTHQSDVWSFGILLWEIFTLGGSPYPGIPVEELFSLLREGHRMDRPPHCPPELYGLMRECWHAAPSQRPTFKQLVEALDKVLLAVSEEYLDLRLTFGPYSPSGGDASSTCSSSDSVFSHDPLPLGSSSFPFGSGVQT

COc1cc(OC)cc(N(CC(OC(C)=O)C(F)(F)F)c2ccc3ncc(-c4cccnc4)nc3c2)c1 (single isomer, unassigned) [Compound 45]
BAF3-KDR (MIN IL3) 384 well pIC50 ([1]; minus IL3): <5

COc1cc(OC)cc(N(CC(O)C(F)(F)F)c2ccc3ncc(-c4cccnc4)nc3c2)c1 (single isomer, unassigned) [Compound 53]
BAF3-KDR (MIN IL3) 384 well pIC50 ([1]; minus IL3): <5

COc1cc(OC)cc(N(CC(O)C(F)(F)F)c2ccc3ncc(-c4cccnc4)nc3c2)c1 (single isomer, unassigned) [Compound 54]
BAF3-KDR (MIN IL3) 384 well pIC50 ([1]; minus IL3): <5

COc1cc(OC)cc(N(CC(OC(C)=O)C(F)(F)F)c2ccc3ncc(-c4cccnc4)nc3c2)c1 (single isomer, unassigned) [Compound 75]
BAF3-KDR (MIN IL3) 384 well pIC50 ([1]; minus IL3): <5

COCCCN(c1cc(OC)cc(OC)c1)c1ccc2ncc(-c3ccn(C)c3)nc2c1 [Compound 3]
IC50 (FGFR2 (h)): 19.5 nM
BAF3-FGFR 1 (MIN IL3) 384 well pIC50 [2]: 5.91
BAF3-KDR (MIN IL3) 384 well pIC50 ([1]; minus IL3): 5.07
BAF3-FGFR4 pIC50 [3]: 6.4

COCCN(c1cc(OC)cc(OC)c1)c1ccc2ncc(-c3ccn(C)c3)nc2c1 [Compound 6]
IC50 (FGFR2 (h)): 12 nM
BAF3-FGFR 1 (MIN IL3) 384 well pIC50 [2]: 5.84
BAF3-KDR (MIN IL3) 384 well pIC50 ([1]; minus IL3): 5.18
BAF3-FGFR4 pIC50 [3]: 5.6

COc1cc(OC)cc(N(CCNC(C)C)c2ccc3ncc(-c4ccn(C)c4)nc3c2)c1 [Compound 8]
IC50 (FGFR2 (h)): 2.63 nM
BAF3-FGFR 1 (MIN IL3) 384 well pIC50 [2]: 8.13
BAF3-KDR (MIN IL3) 384 well pIC50 ([1]; minus IL3): 6.19
BAF3-FGFR4 pIC50 [3]: 7.2

COc1cc(OC)cc(N(CCO)c2ccc3ncc(-c4cccnc4)nc3c2)c1 [Compound 9]
IC50 (FGFR2 (h)): 17 nM
BAF3-FGFR 1 (MIN IL3) 384 well pIC50 [2]: 6.25
BAF3-KDR (MIN IL3) 384 well pIC50 ([1]; minus IL3): 5.12
BAF3-FGFR4 pIC50 [3]: 5.8

COc1cc(OC)cc(N(CCNC(C)C)c2ccc3ncc(-c4cccnc4)nc3c2)c1 [Compound 10]
IC50 (FGFR2 (h)): 5.89 nM
BAF3-FGFR 1 (MIN IL3) 384 well pIC50 [2]: 7.55
BAF3-KDR (MIN IL3) 384 well pIC50 ([1]; minus IL3): 5.56
BAF3-FGFR4 pIC50 [3]: 6.6

COc1cc(OC)cc(N(CCO)c2ccc3ncc(-c4ccncc4)nc3c2)c1 [Compound 11]
IC50 (FGFR2 (h)): 14.1 nM
BAF3-FGFR 1 (MIN IL3) 384 well pIC50 [2]: 6.01
BAF3-KDR (MIN IL3) 384 well pIC50 ([1]; minus IL3): 5.1
BAF3-FGFR4 pIC50 [3]: 5.9

COc1cc(OC)cc(N(CCNC(C)C)c2ccc3ncc(-c4ccncc4)nc3c2)c1 [Compound 12]
IC50 (FGFR2 (h)): 2.45 nM
BAF3-FGFR 1 (MIN IL3) 384 well pIC50 [2]: 7.27
BAF3-KDR (MIN IL3) 384 well pIC50 ([1]; minus IL3): 5.53
BAF3-FGFR4 pIC50 [3]: 6.8

CNC(=O)c1cc(-c2cnc3ccc(N(CCNC(C)C)c4cc(OC)cc(OC)c4)cc3n2)ccn1 [Compound 14]
IC50 (FGFR2 (h)): 5.62 nM
BAF3-FGFR 1 (MIN IL3) 384 well pIC50 [2]: 6.61
BAF3-KDR (MIN IL3) 384 well pIC50 ([1]; minus IL3): 5.35
BAF3-FGFR4 pIC50 [3]: 6.8

COc1cc(OC)cc(N(CCNC(C)C)c2ccc3ncc(-c4ccc(N)nc4)nc3c2)c1 [Compound 17]
IC50 (FGFR2 (h)): 2.11 nM
BAF3-FGFR 1 (MIN IL3) 384 well pIC50 [2]: 6.975
BAF3-KDR (MIN IL3) 384 well pIC50 ([1]; minus IL3): 5.82
BAF3-FGFR4 pIC50 [3]: ~7.11

COc1cc(OC)cc(N(CC2CC2)c2ccc3ncc(-c4ccnn4C)nc3c2)c1 [Compound 18]
BAF3-KDR (MIN IL3) 384 well pIC50 ([1]; minus IL3): <5

COc1cc(OC)cc(N(CC2CC2)c2ccc3ncc(-c4ccc5c(ccn5C)c4)nc3c2)c1 [Compound 20]
BAF3-KDR (MIN IL3) 384 well pIC50 ([1]; minus IL3, 384 well): <5

COc1cc(OC)cc(N(CC2CC2)c2ccc3ncc(-c4cn(C)cn4)nc3c2)c1 [Compound 21]
BAF3-KDR (MIN IL3) 96 well pIC50 ([1]; minus IL3): <5
BAF3-KDR (MIN IL3) 384 well pIC50 ([1]; minus IL3): <5

COc1cc(OC)cc(N(CC2CC2)c2ccc3ncc(C#Cc4ccncc4)nc3c2)c1 [Compound 23]
IC50 (FGFR2 (h)): 427 nM
BAF3-FGFR 1 (MIN IL3) 96 well pIC50 [2]: 5.41
BAF3-FGFR 1 (MIN IL3) 384 well pIC50 [2]: 5.09
BAF3-KDR (MIN IL3) 96 well pIC50 ([1]; minus IL3): 5.36
BAF3-KDR (MIN IL3) 384 well pIC50 ([1]; minus IL3): <5
BAF3-FGFR4 pIC50 [3]: <5

COc1cc(OC)cc(N(CC2CC2)c2ccc3ncc(-c4cn(CCN5CCOCC5)nn4)nc3c2)c1 [Compound 24]
IC50 (FGFR2 (h)): 25.1 nM
BAF3-FGFR 1 (MIN IL3) 96 well pIC50 [2]: 5.42
BAF3-FGFR 1 (MIN IL3) 384 well pIC50 [2]: 5.39
BAF3-KDR (MIN IL3) 96 well pIC50 ([1]; minus IL3): <5
BAF3-KDR (MIN IL3) 384 well pIC50 ([1]; minus IL3): <5
BAF3-FGFR4 pIC50 [3]: ~5.1

CNC(=O)c1cc(-c2cnc3ccc(N(CCN4CCCC4=O)c4cc(OC)cc(OC)c4)cc3n2)ccn1 [Compound 25]
IC50 (FGFR2 (h)): 251 nM
BAF3-FGFR 1 (MIN IL3) 384 well pIC50 [2]: 5.05
BAF3-KDR (MIN IL3) 384 well pIC50 ([1]; minus IL3): <5
BAF3-FGFR4 pIC50 [3]: <5

COc1cc(OC)cc(N(CC2CC2)c2ccc3ncc(-n4cnc(C)c4)nc3c2)c1 [Compound 30]
IC50 (FGFR2 (h)): 67.6 nM
BAF3-FGFR 1 (MIN IL3) 96 well pIC50 [2]: 5.03
BAF3-FGFR 1 (MIN IL3) 384 well pIC50 [2]: 5.32
BAF3-KDR (MIN IL3) 96 well pIC50 ([1]; minus IL3): 5.11
BAF3-KDR (MIN IL3) 384 well pIC50 ([1]; minus IL3): 5.07
BAF3-FGFR4 pIC50 [3]: <5.35

COc1cc(OC)cc(N(CC2CC2)c2ccc3ncc(-n4ccc(C)n4)nc3c2)c1 [Compound 31]
IC50 (FGFR2 (h)): > 1000 nM
BAF3-FGFR 1 (MIN IL3) 96 well pIC50 [2]: <5
BAF3-FGFR 1 (MIN IL3) 384 well pIC50 [2]: <5
BAF3-KDR (MIN IL3) 384 well pIC50 ([1]; minus IL3): <5
BAF3-FGFR4 pIC50 [3]: <5

COc1cc(OC)cc(N(CC2CC2)c2ccc3ncc(-n4ccnc4C)nc3c2)c1 [Compound 32]
IC50 (FGFR2 (h)): 575 nM
BAF3-FGFR 1 (MIN IL3) 96 well pIC50 [2]: <5
BAF3-FGFR 1 (MIN IL3) 384 well pIC50 [2]: <5
BAF3-KDR (MIN IL3) 384 well pIC50 ([1]; minus IL3): <5
BAF3-FGFR4 pIC50 [3]: <5

COc1cc(OC)cc(N(CCCO)c2ccc3ncc(-c4ccnc(C(=O)NCCCN)c4)nc3c2)c1 [Compound 33]
IC50 (FGFR2 (h)): 22.9 nM
BAF3-FGFR 1 (MIN IL3) 384 well pIC50 [2]: 5.1
BAF3-KDR (MIN IL3) 384 well pIC50 ([1]; minus IL3): <5
BAF3-FGFR4 pIC50 [3]: 5.2

COc1cc(OC)cc(N(CC2CC2)c2ccc3ncc(-c4cc[nH]c4)nc3c2)c1 [Compound 36]
BAF3-KDR (MIN IL3) 96 well pIC50 ([1]; minus IL3): <5
BAF3-KDR (MIN IL3) 384 well pIC50 ([1]; minus IL3): <5

COc1cc(OC)cc(N(CC2CC2)c2ccc3ncc(-c4cn(CCO)nn4)nc3c2)c1 [Compound 40]
IC50 (FGFR2 (h)): 89.1 nM
BAF3-FGFR 1 (MIN IL3) 96 well pIC50 [2]: 5.4
BAF3-FGFR 1 (MIN IL3) 384 well pIC50 [2]: 5.24
BAF3-KDR (MIN IL3) 96 well pIC50 ([1]; minus IL3): <5
BAF3-KDR (MIN IL3) 384 well pIC50 ([1]; minus IL3): <5
BAF3-FGFR4 pIC50 [3]: ~5.0

COc1cc(OC)cc(N(CC2CC2)c2ccc3ncc(-c4ccn(CCO)c4)nc3c2)c1 [Compound 56]
BAF3-KDR (MIN IL3) 96 well pIC50 ([1]; minus IL3): 5.29
BAF3-KDR (MIN IL3) 384 well pIC50 ([1]; minus IL3): ~5

COc1cc(OC)cc(N(CC2CC2)c2ccc3ncc(Nc4cnn(C)c4)nc3c2)c1 [Compound 61]
BAF3-KDR (MIN IL3) 384 well pIC50 ([1]; minus IL3): <5

COc1cc(OC)cc(N(CC2CC2)c2ccc3ncc(-c4cnn(C)n4)nc3c2)c1 [Compound 70]
BAF3-KDR (MIN IL3) 96 well pIC50 ([1]; minus IL3): <5
BAF3-KDR (MIN IL3) 384 well pIC50 ([1]; minus IL3): <5

COc1cc(OC)cc(N(CC2CC2)c2ccc3ncc(-c4cn(C)nn4)nc3c2)c1 [Compound 71]
BAF3-KDR (MIN IL3) 96 well pIC50 ([1]; minus IL3): <5
BAF3-KDR (MIN IL3) 384 well pIC50 ([1]; minus IL3): <5

COc1cc(OC)cc(N(CC2CC2)c2ccc3ncc(-c4cnnn4C)nc3c2)c1 [Compound 72]
IC50 (FGFR2 (h)): 479 nM
BAF3-FGFR 1 (MIN IL3) 96 well pIC50 [2]: 5.23
BAF3-FGFR 1 (MIN IL3) 384 well pIC50 [2]: 5.18
BAF3-FGFR4 pIC50 [3]: <5

COc1cc(OC)cc(N(CC2CC2)c2ccc3ncc(-c4ccn(C)c4)nc3c2)c1 [Compound 73]
BAF3-KDR (MIN IL3) 96 well pIC50 ([1]; minus IL3): <5
BAF3-KDR (MIN IL3) 384 well pIC50 ([1]; minus IL3): 5.07

CNC(=O)c1cc(-c2cnc3ccc(N(CCN4CCCC4CO)c4cc(OC)cc(OC)c4)cc3n2)ccn1 (centres unmarked) [Compound 109]
IC50 (FGFR2 (h)): 6.31 nM
BAF3-FGFR 1 (MIN IL3) 384 well pIC50 [2]: 6.63
BAF3-FGFR4 pIC50 [3]: 6.2

COc1cc(OC)cc(N(CCCO)c2ccc3ncc(-c4ccc(N5CCOCC5)nc4)nc3c2)c1 [Compound 124]
BAF3-FGFR 1 (MIN IL3) 384 well pIC50 [2]: 6.24
BAF3-KDR (MIN IL3) 384 well pIC50 ([1]; minus IL3): 5.11
BAF3-FGFR4 pIC50 [3]: 6.1
